System: 454973-116-R2-J3-PDC spheroids, viability, % test/control
Assay: Anticancer human tumor 454973-116-R2-J3-PDC patient-derived pancreatic carcinoma cell line growth inhibition [GQUAD]
Settings: spheroids with HUVEC and MSC; for IC50: curve of first compound; for viability, T/C: stronger effect = lower value
In short: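 Multi-cell-type spheroids of tumor cells with HUVEC and mesenchymal stem cells, treated with drug combinations. Concentrations descend in half-log steps from near clinical Cmax, or from 10 microM where Cmax is unknown; viability read-out.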

[1] = second compound 0.0316 µM, first compound 0.0316 µM
[2] = second compound 0.0316 µM, first compound 0.1 µM
[3] = second compound 0.0316 µM, first compound 0.316 µM
[4] = second compound 0.0316 µM, first compound 1 µM
[5] = second compound 0.0316 µM, first compound 3.16 µM
[6] = second compound 0.0316 µM, first compound 10 µM
[7] = second compound 0.1 µM, first compound 0.0316 µM
[8] = second compound 0.1 µM, first compound 0.1 µM
[9] = second compound 0.1 µM, first compound 0.316 µM
[10] = second compound 0.1 µM, first compound 1 µM
[11] = second compound 0.1 µM, first compound 3.16 µM
[12] = second compound 0.1 µM, first compound 10 µM
[13] = second compound 0.316 µM, first compound 0.0316 µM
[14] = second compound 0.316 µM, first compound 0.1 µM
[15] = second compound 0.316 µM, first compound 0.316 µM
[16] = second compound 0.316 µM, first compound 1 µM
[17] = second compound 0.316 µM, first compound 3.16 µM
[18] = second compound 0.316 µM, first compound 10 µM
[19] = second compound 1 µM, first compound 0.0316 µM
[20] = second compound 1 µM, first compound 0.1 µM
[21] = second compound 1 µM, first compound 0.316 µM
[22] = second compound 1 µM, first compound 1 µM
[23] = second compound 1 µM, first compound 3.16 µM
[24] = second compound 1 µM, first compound 10 µM
[25] = second compound 3.16 µM, first compound 0.0316 µM
[26] = second compound 3.16 µM, first compound 0.1 µM
[27] = second compound 3.16 µM, first compound 0.316 µM
[28] = second compound 3.16 µM, first compound 1 µM
[29] = second compound 3.16 µM, first compound 3.16 µM
[30] = second compound 3.16 µM, first compound 10 µM
[31] = second compound 10 µM, first compound 0.0316 µM
[32] = second compound 10 µM, first compound 0.1 µM
[33] = second compound 10 µM, first compound 0.316 µM
[34] = second compound 10 µM, first compound 1 µM
[35] = second compound 10 µM, first compound 3.16 µM
[36] = second compound 10 µM, first compound 10 µM
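Also: spheroids exposed to compounds for seven days.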
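For viability, T/C in this document: 100% = DMSO vehicle control viability.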

Nc1ccn(C2OC(CO)C(O)C2(F)F)c(=O)n1 (stereo unspecified) + Cc1[nH]c2ccc(F)cc2c1-c1nc2c3cccnc3c3ncccc3c2[nH]1
IC50 (second compound 0.0316 µM): < 31.6 nM
IC50 (second compound 0.1 µM): < 31.6 nM
IC50 (second compound 0.316 µM): < 31.6 nM
IC50 (second compound 1 µM): < 31.6 nM
IC50 (second compound 3.16 µM): < 31.6 nM
IC50 (second compound 10 µM): < 31.6 nM
viability, T/C [1]: 20.1%
viability, T/C [2]: 13.8%
viability, T/C [3]: 17.1%
viability, T/C [4]: 17.2%
viability, T/C [5]: 17.2%
viability, T/C [6]: 15.5%
viability, T/C [7]: 19.7%
viability, T/C [8]: 13.9%
viability, T/C [9]: 15.5%
viability, T/C [10]: 13.7%
viability, T/C [11]: 17.3%
viability, T/C [12]: 14.8%
viability, T/C [13]: 15.3%
viability, T/C [14]: 15.8%
viability, T/C [15]: 17.7%
viability, T/C [16]: 14.5%
viability, T/C [17]: 16.9%
viability, T/C [18]: 15.8%
viability, T/C [19]: 19%
viability, T/C [20]: 19.2%
viability, T/C [21]: 16%
viability, T/C [22]: 20.1%
viability, T/C [23]: 14.2%
viability, T/C [24]: 17.2%
viability, T/C [25]: 16.1%
viability, T/C [26]: 15.6%
viability, T/C [27]: 17.8%
viability, T/C [28]: 17.4%
viability, T/C [29]: 19.1%
viability, T/C [30]: 16.4%
viability, T/C [31]: 17.5%
viability, T/C [32]: 17.6%
viability, T/C [33]: 17%
viability, T/C [34]: 17%
viability, T/C [35]: 13.8%
viability, T/C [36]: 16.6%

O=c1[nH]cc(F)c(=O)[nH]1 + Cc1[nH]c2ccc(F)cc2c1-c1nc2c3cccnc3c3ncccc3c2[nH]1
IC50 (second compound 0.0316 µM): 2250 nM
IC50 (second compound 0.1 µM): 1530 nM
IC50 (second compound 0.316 µM): 2190 nM
IC50 (second compound 1 µM): 2360 nM
IC50 (second compound 3.16 µM): 1920 nM
IC50 (second compound 10 µM): 1880 nM
viability, T/C [1]: 116%
viability, T/C [2]: 115%
viability, T/C [3]: 109%
viability, T/C [4]: 77.9%
viability, T/C [5]: 34.5%
viability, T/C [6]: 42.2%
viability, T/C [7]: 105%
viability, T/C [8]: 109%
viability, T/C [9]: 109%
viability, T/C [10]: 57.5%
viability, T/C [11]: 33.7%
viability, T/C [12]: 40.5%
viability, T/C [13]: 107%
viability, T/C [14]: 110%
viability, T/C [15]: 105%
viability, T/C [16]: 78.9%
viability, T/C [17]: 31.8%
viability, T/C [18]: 41.1%
viability, T/C [19]: 99.2%
viability, T/C [20]: 97.2%
viability, T/C [21]: 95.4%
viability, T/C [22]: 79.1%
viability, T/C [23]: 33.9%
viability, T/C [24]: 46.3%
viability, T/C [25]: 96.5%
viability, T/C [26]: 96.1%
viability, T/C [27]: 99.9%
viability, T/C [28]: 65.1%
viability, T/C [29]: 31.4%
viability, T/C [30]: 45.6%
viability, T/C [31]: 93.5%
viability, T/C [32]: 87.7%
viability, T/C [33]: 102%
viability, T/C [34]: 63.7%
viability, T/C [35]: 30.9%
viability, T/C [36]: 46.6%

CCCS(=O)(=O)Nc1ccc(F)c(C(=O)c2c[nH]c3ncc(-c4ccc(Cl)cc4)cc23)c1F + CN(C)c1ccc(Nc2c3ccc(NC(=O)CCN4CCCC4)cc3nc3cc(NC(=O)CCN4CCCC4)ccc23)cc1
IC50 (second compound 0.0316 µM): 5410 nM
IC50 (second compound 0.1 µM): 6130 nM
IC50 (second compound 0.316 µM): 6150 nM
IC50 (second compound 1 µM): 5520 nM
IC50 (second compound 3.16 µM): 5440 nM
IC50 (second compound 10 µM): 3720 nM
viability, T/C [1]: 108%
viability, T/C [2]: 104%
viability, T/C [3]: 114%
viability, T/C [4]: 110%
viability, T/C [5]: 85%
viability, T/C [6]: 10%
viability, T/C [7]: 103%
viability, T/C [8]: 98%
viability, T/C [9]: 103%
viability, T/C [10]: 123%
viability, T/C [11]: 106%
viability, T/C [12]: 8.55%
viability, T/C [13]: 98.5%
viability, T/C [14]: 101%
viability, T/C [15]: 108%
viability, T/C [16]: 105%
viability, T/C [17]: 102%
viability, T/C [18]: 11.7%
viability, T/C [19]: 88.1%
viability, T/C [20]: 94.3%
viability, T/C [21]: 104%
viability, T/C [22]: 87.9%
viability, T/C [23]: 85.1%
viability, T/C [24]: 12.6%
viability, T/C [25]: 90%
viability, T/C [26]: 74.1%
viability, T/C [27]: 101%
viability, T/C [28]: 89.5%
viability, T/C [29]: 82.4%
viability, T/C [30]: 13.5%
viability, T/C [31]: 68.3%
viability, T/C [32]: 70%
viability, T/C [33]: 80.3%
viability, T/C [34]: 67.2%
viability, T/C [35]: 57.9%
viability, T/C [36]: 4.49%

— PubChem BioAssay AID2060508 (Molecular Pharmacology Branch, DTP, NCI, 2025)
